According to patent US20070112068A1, “Nitrile compound and its use in pest control” (priority 2003, published 2007):

What was measured:
Assay type in all cases: in vivo
Blattella germanica [1] = test: Experimental Example 14: topical application, Blattella germanica; settings: 1 μl of 1% (w/v) acetone solution onto sternum of thorax of female imagoes; after 7 days
Experimental: 1% (w/v) solutions of the present compounds (4), (20), (22), (23), (24), (29), (30), (31), (35), (36), (37), (38), (46), (53), (54), (56), (57), (59), (61), (66), (67), (68), (69), (70), (71), (79), (81), (83), (84), (89), and (90) in acetone were prepared. Onto the sternum of the thorax of female imagoes of Blattella germanica, 1 μl of the acetone solution was added dropwise. The imagoes were transferred to a plastic cup having a diameter of about 9 cm and a height of about 4.5 cm and left together with feed and water at 25° C. After 7 days, the number of surviving Blattella germanica was examined and the death rate of the pest was calculated. 10 imagoes of Blattella germanica were put in a cup and three replicate experiments were performed.

Periplaneta fuliginosa = test: Experimental Example 16: treated filter paper in paper box, Periplaneta fuliginosa; settings: 0.1 ml of 5% (w/v) acetone solution on filter paper in paper box; after 7 days
Experimental: 5% (w/v) solutions of the present compounds (23), (24) and (31) in acetone were prepared. 0.1 ml of the solution was added dropwise onto a filter paper with 2 cm×2 cm and then air-dried. This filter paper was attached to the center of the inside bottom of a paper box having 10 cm (width)×2 cm (height)×7 cm (depth) with a two-sided tape. One hole of 2 mm in width and 2 cm in height was made through one side of this box. This box was placed in a plastic vat with 25 cm×20 cm×8 cm in height and therein 3 females and 3 males of Periplaneta fuliginosa were released. The inside wall of the plastic vat used in this experiment was coated with talc for preventing the escape of cockroaches. The plastic vat contained feed and water and left at 25° C. After 7 days, Periplaneta fuliginosa was observed and the death rate of the pest was calculated. This experiment was repeated two times.

Blattella germanica [2] = test: Experimental Example 18: smoking preparation in Peet-Grady chamber, Blattella germanica; settings: smoking preparation (Formulation Example 16); 2 hours exposure, after 72 hours
Experimental: Plastic cups (diameter: 12.5 cm, height: 8 cm) containing 10 (5 males and 5 females) imagoes of Blattella germanica were placed at the two corners of a Peet-Grady chamber with 1.8 m (width)×1.8 m (depth)×1.8 m (height). A plastic container containing water was placed at the center of the bottom of the Peet-Grady chamber and a smoking preparation of the present compound (31) prepared according to Formulation Example 16 was placed in this plastic cup. After 2 hours, Blattella germanica was collected, transferred to a 200 mL plastic cup, and left together with feed and water at 25° C. After 72 hours, the number of surviving Blattella germanica was examined and the death rate of the pest was calculated.

Formica fusca japonica [3] = test: Experimental Example 19: direct oil spray in CSMA chamber, Formica fusca japonica; settings: 0.4 ml of 0.0625% (w/v) oil sprayed directly; after 72 hours
Experimental: 18.8 mg of the present compound (31) was dissolved in 30 mL of a mixed solvent of 90 parts by weight of Isopar M (isoparaffin, the registered trade name of Exxon Chemical) and 10 parts by weight of dichloromethane to prepare a 0.0625% (w/v) oil. A plastic cup (200 mL) containing 10 imagoes of Formica fusca japonica was placed on the bottom of a CSMA chamber (width: 46 cm, depth: 46 cm, height: 70 cm). 0.4 ml of the oil was directly sprayed on the test Formica fusca japonica from the upper side of the CSMA chamber. After 10 seconds from spraying, the container containing Formica fusca japonica was removed. Formica fusca japonica was transferred to another plastic container (200 mL) and left together with feed and water at 25° C. After 72 hours from pesticide treatment, Formica fusca japonica was observed and the death rate of the pest was calculated.

Formica fusca japonica [4] = test: Experimental Example 20: poison bait, Formica fusca japonica; settings: poison bait: 1 ml of 0.1% by weight acetone solution per 1 g unrefined sugar; 0.5 g bait; after 48 hours
Experimental: 1 ml of a 0.1% by weight solution of the present compound (31) in acetone was added dropwise to 1 g of a commercially available powdery unrefined sugar, mixed thoroughly and then air-dried to obtain a poison bait. A cotton ball impregnated with water and 0.5 g of the poison bait on an aluminum dish were placed in a plastic cup (860 mL) containing 10 imagoes of Formica fusca japonica. After 48 hours, the number of surviving Formica fusca japonica was examined and the death rate of the pest was calculated.

Blattella germanica [5] = test: Experimental Example 22: treated filter paper suspended in chamber, Blattella germanica; settings: 10 mL of 10% (w/v) acetone solution on filter paper; 70 cm cube chamber; after 72 hours
Experimental: A 10% (w/v) solution of the present compound (31) in acetone is prepared. 10 mL of the solution is uniformly added dropwise to a filter paper with 10 cm×25 cm and then air-dried. The filter paper is suspended from the center of the ceiling of a chamber with 70 cm (width)×70 cm (depth)×70 cm (height). After 20 imagoes (10 males and 10 females) of Blattella germanica are released, the door of the chamber is closed. Feed and water are placed in the glass chamber.

Formica fusca japonica [6] = test: Experimental Example 23: treated filter paper on cup lid, Formica fusca japonica; settings: 0.1 ml of 5% (w/v) acetone solution on filter paper on lid; after 7 days
Experimental: A 5% (w/v) solution of the present compound (31) in acetone is prepared. 0.1 ml of the solution is added dropwise to a filter paper with 2 cm×2 cm and then air-dried. 10 imagoes of Formica fusca japonica are released in a plastic cup having a diameter of 12.5 cm and a height of 8 cm. After feed and water are placed therein, the cup is closed with a lid. The aforementioned pesticide-treated filter paper is attached to the inner surface of the lid. In addition, the inside wall of the cup is coated with talc for preventing the climbing of ants. This cup is kept at 25° C.

Halyomorpha mista = test: Experimental Example 24: direct oil spray in CSMA chamber, Halyomorpha mista; settings: 0.4 ml of 5% (w/v) oil sprayed directly; after 72 hours
Experimental: 1.5 g of the present compound (31) is dissolved in 30 mL of a mixed solvent of 90 parts by weight of Isopar M (isoparaffin; the registered trade name of Exxon Chemical) and 10 parts by weight of dichloromethane to prepare a 5% (w/v) oil. A plastic cup (860 mL) containing 10 imagoes of Halyomorpha mista is covered with a nylon net (mesh width: 2 mm) and then placed on the bottom of a CSMA chamber (width: 46 cm, depth: 46 cm, height: 70 cm). 0.4 ml of the oil is directly sprayed on the test Halyomorpha mista from the upper side of the CSMA chamber. After 10 seconds from spraying, the cup containing Halyomorpha mista is removed, and feed and water are placed in the cup.

## N#CC(C#N)(CCC(F)(F)F)CC(F)(F)C(F)(F)C(F)(F)C(F)F [(31)]
Blattella germanica [1]
  death rate of the pest: 100%
Periplaneta fuliginosa
  death rate of the pest: 100%
Blattella germanica [2]
  death rate of the pest: 100%
Formica fusca japonica [3]
  death rate of the pest: 100%
Formica fusca japonica [4]
  death rate of Formica fusca japonica: 100%
Blattella germanica [5]
  pesticidal effect: pesticidal effect on Blattella germanica is confirmed
Formica fusca japonica [6]
  pesticidal effect: pesticidal effect on Formica fusca japonica is confirmed
Halyomorpha mista
  pesticidal effect: pesticidal effect on Halyomorpha mista is confirmed
